Measured values reported in patent publication US20230118142A1, “AGENTS FOR USE IN THE TREATMENT OF TISSUE DAMAGE” (UCL BUSINESS LTD, priority 2020, published 2023).
pIC50: −log10 of the molar value.

Tests used:
[1] = In vivo clearance of ligand; conditions: male, C57BL/6, mouse, plasma, 0.5 mg; mice, intravenous; read-out: plasma t1/2 of ligand
Procedure: (i) Ligand (0.5 mg/animal) dissolved in PBS or saline (200 μl) was injected intravenously into the tail vein of six male; 23-27 week old wild-type C57BL/6 mice. Up to two blood samples plus a terminal sample per mouse were collected at each time point up to 180 minutes.
(ii) Serum was prepared and ˜200 ng of internal standard (either ^2H4-BPC6 or BPC9) added. Serum proteins were precipitated with 4 volumes of either ice cold methanol or acetonitrile. The supernatant was dried under vacuum and re-dissolved in 0.1% v/v aqueous formic acid. (iii) Samples were chromatographed on a Phenomenex Aqua column using a gradient of 0.1% v/v formic acid-60% v/v acetonitrile in formic acid, and the eluate passed into the positive ion source of a Quattro II triple quadrupole mass spectrometer. The MRM transitions used were m/z 449.3→390.2 and 453.→394.2 (BPC6) and m/z 477.3→418.3, […] (BPC8).
(iv) Ligand concentrations were measured against an extracted standard curve and were plotted using Sigmaplot (v14) and fitted to a 2-parameter exponential decay.

[2] = molecular target: T1, CRP (Homo sapiens, UniProt P02741); experiment: Stability of pre-formed CRP/ligand complexes in vitro (mouse plasma, whole blood, shear forces, dialysis); set-up: from tissue
T1 sequence (P02741 19-224): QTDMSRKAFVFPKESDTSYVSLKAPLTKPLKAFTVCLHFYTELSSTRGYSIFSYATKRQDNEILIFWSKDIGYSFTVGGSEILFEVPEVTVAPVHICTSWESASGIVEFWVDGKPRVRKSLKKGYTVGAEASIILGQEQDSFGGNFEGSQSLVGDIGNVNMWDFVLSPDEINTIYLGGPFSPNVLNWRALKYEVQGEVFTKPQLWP
Procedure: Pre-formed complexes of CRP/Pk-023 (with 5-fold molar excess of ligand over CRP pentamer), or CRP alone, were co-incubated, unstirred, in TC buffer (control), fresh mouse heparinised plasma or fresh heparinised whole mouse blood at 37° C. for up to 3 hours. CRP concentrations in plasma were then measured by Roche immunoassay. […] On addition of EDTA to dissociate CRP ligand binding, Roche CRP concentrations in all CRP/Pk-023 samples recovered to ˜70% of control values showing that the protein was still present and immunoreactive.
To determine whether shear forces might have an effect on stability, pre-formed CRP/Pk-023 complexes prepared with either a 2.5- or 5-fold molar excess of ligand were added to heparinised mouse plasma and stirred rapidly at room temperature for 3 h.
CRP/Pk-023 complexes formed at 5-fold ligand excess were stable during exhaustive dialysis against TC buffer for up to 96 h at room temperature, as shown by the Roche CRP assay values. After 30 h, ˜8% of the complex had dissociated, with a further 2.5% dissociation at 96 h. Similarly, CRP/Pk-023 complexes pre-formed in serum were stable during dialysis against TC buffer for 24 h at room temperature with shear forces produced by a magnetic stir bar inserted into the dialysis tubing. ^125I-CRP was included to correct for dilution account for any effects of dilution.

[3] = molecular target: T1, CRP; experiment: Immobilised phosphocholine plate assay (125I-CRP binding); set-up: The final concentrations were 0.73 μM native pentameric CRP; from tissue; conditions: read-out: IC50 for inhibition of 125I-CRP binding to immobilised phosphocholine
Procedure: (i) Phosphocholine was immobilised on Greiner NHS-activated microtitre plates by incubation with 4-aminophenyl-1-phosphocholine. Remaining active sites were blocked by incubation with 4% w/v BSA in TC buffer (TCB).
(ii) Human CRP at 1 μg/ml in TC buffer was spiked with ^125I-labelled CRP to provide 10^6 cpm/ml.
(iii) Compounds were prepared from up to 10 mM stock solutions by dilution in TC buffer to 0.5 mM (labelled S1). Serial dilutions were prepared by diluting 100 μl ligand solution with 200 μl TC buffer (S2-S10). A ligand-free control was also used (SO, TC only).
(iv) A 100 μl volume of CRP solution was incubated with 10 μl of each compound (S1-S10, SO) for 1 h at room temperature without stirring, to provide final ligand concentrations across the range 45.5 μM-6.9 nM with a ligand:CRP monomer molar ratio of 1151-0.06. In some cases, single fixed ligand concentrations were also assayed in comparison with PC.
(v) A 100 μl volume of each CRP-ligand mixture was added to the plate wells and incubated for 2 h at room temperature. Solutions were then discarded and the plates washed with TCB buffer. Bound radioactivity was measured (1 min counts) using a gamma counter (Perkin Elmer Wizard 2470).
(vi) Data were plotted with Sigmaplot v14 software using the 4-parameter logistic curve y=min+(max−min)/(1+(x/EC50)^−Hill slope) to calculate IC50.

SMILES: O=P(O)(OCCCCCCCCOP(=O)(O)O[C@@H]1CN2CCC1CC2)O[C@@H]1CN2CCC1CC2 [Pk-023, [(3S)-1-azabicyclo[2.2.2]octan-3-yloxy]({[8-({[(3S)-1-azabicyclo[2.2.2]octan-3-yloxy](hydroxy)phosphoryl}oxy)octyl]oxy})phosphinic acid]
- half-life [1]: ~15 min
- Stability of complex to shear forces (Roche CRP reactivity) ([2]; 2.5- or 5-fold ligand excess, heparinised mouse plasma, stirred rapidly, room temperature, 3 h): stable throughout the experiment
- Complex dissociated during dialysis against TC buffer ([2]; 5-fold ligand excess, room temperature, after 30 h): ~8%
- Stability of pre-formed CRP/ligand complex (Roche CRP) ([2]; 5-fold ligand excess, TC buffer, mouse heparinised plasma or whole mouse blood, 37° C., up to 3 hours): stable throughout the experiment
- Roche CRP concentration recovered on addition of EDTA ([2]; after incubation in mouse plasma/whole blood): ~70 % of control values
- Further dissociation of complex during dialysis ([2]; at 96 h): 2.5%
- Stability of complexes pre-formed in serum during dialysis ([2]; dialysis against TC buffer 24 h, room temperature, with shear forces): stable
- pIC50 [3]: 6.82
